Data taken from PMC8037182, “Solvothermal Synthesis of Multiple Dihydropyrimidinones at a Time as Inhibitors of Eg5” (Molecules, 2021).

Key:
L929 cell line = assay: Cytotoxicity MTS assay, L929 cell line; assay type: cell-based; conditions: for OD490 values, Mean / OD490 values, Well 1 / OD490 values, Well 2 / OD490 values, Well 3: L929 cell line
Method in brief: (§1)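 Cells seeded at 1000 per well, grown 24 h, then exposed to compound (0.5–100 µM final) for 24 h with 0.025% DMSO blank. MTS reagent added for 2 h at 37 °C, absorbance read at 490 nm; IC50 from non-linear regression of % viability versus concentration, three independent duplicate experiments.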

T24 cell line = assay: Cytotoxicity MTS assay, T24 cell line; assay type: cell-based; conditions: for OD490 Mean / OD490 Well 1 / OD490 Well 2 / OD490 Well 3: T24 cell line;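 as to OD490 Mean: blank control wells received 0.025% DMSO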;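 as to OD490 Well 1: blank control wells received 0.025% DMSO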;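 as to OD490 Well 2: blank control wells received 0.025% DMSO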;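 as to OD490 Well 3: blank control wells received 0.025% DMSO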
Method in brief: as §1

## CCOc1ccccc1C1NC(=S)NC(C)=C1C(=O)Nc1ccc(Cl)cc1 (stereo not drawn) [C9]
other
  melting point: 253 to 257 °C
L929 cell line; 0.5μM, first assay
  OD490 values, Mean: 1.3120
  OD490 values, Well 1: 1.2051
  OD490 values, Well 2: 1.4334
  OD490 values, Well 3: 1.2976
L929 cell line; 0.5μM, second assay
  OD490 values, Mean: 1.7414
  OD490 values, Well 1: 1.7956
  OD490 values, Well 2: 1.7365
  OD490 values, Well 3: 1.6920
L929 cell line; 0.5μM, third assay
  OD490 values, Mean: 1.5324
  OD490 values, Well 1: 1.5628
  OD490 values, Well 2: 1.4792
  OD490 values, Well 3: 1.5552
L929 cell line; 1μM, first assay
  OD490 values, Mean: 1.2882
  OD490 values, Well 1: 1.1921
  OD490 values, Well 2: 1.2906
  OD490 values, Well 3: 1.3820
L929 cell line; 1μM, second assay
  OD490 values, Mean: 1.7491
  OD490 values, Well 1: 1.7526
  OD490 values, Well 2: 1.7963
  OD490 values, Well 3: 1.6985
L929 cell line; 1μM, third assay
  OD490 values, Mean: 1.5501
  OD490 values, Well 1: 1.5147
  OD490 values, Well 2: 1.6354
  OD490 values, Well 3: 1.5001
L929 cell line; 10μM, first assay
  OD490 values, Mean: 1.2539
  OD490 values, Well 1: 1.1842
  OD490 values, Well 2: 1.1521
  OD490 values, Well 3: 1.4254
L929 cell line; 10μM, second assay
  OD490 values, Mean: 1.6826
  OD490 values, Well 1: 1.6658
  OD490 values, Well 2: 1.5966
  OD490 values, Well 3: 1.7854
L929 cell line; 10μM, third assay
  OD490 values, Mean: 1.5957
  OD490 values, Well 1: 1.5987
  OD490 values, Well 2: 1.6038
  OD490 values, Well 3: 1.5847
L929 cell line; 25μM, first assay
  OD490 values, Mean: 1.1905
  OD490 values, Well 1: 1.1608
  OD490 values, Well 2: 1.2406
  OD490 values, Well 3: 1.1701
L929 cell line; 25μM, second assay
  OD490 values, Mean: 1.4962
  OD490 values, Well 1: 1.4563
  OD490 values, Well 2: 1.5624
  OD490 values, Well 3: 1.4698
L929 cell line; 25μM, third assay
  OD490 values, Mean: 1.3392
  OD490 values, Well 1: 1.3256
  OD490 values, Well 2: 1.3332
  OD490 values, Well 3: 1.3587
L929 cell line; 50μM, first assay
  OD490 values, Mean: 1.0589
  OD490 values, Well 1: 1.0389
  OD490 values, Well 2: 1.0906
  OD490 values, Well 3: 1.0471
L929 cell line; 50μM, second assay
  OD490 values, Mean: 1.2280
  OD490 values, Well 1: 1.2236
  OD490 values, Well 2: 1.2635
  OD490 values, Well 3: 1.1968
L929 cell line; 50μM, third assay
  OD490 values, Mean: 1.1793
  OD490 values, Well 1: 1.1416
  OD490 values, Well 2: 1.2010
  OD490 values, Well 3: 1.1952
L929 cell line; 100μM, first assay
  OD490 values, Mean: 0.6738
  OD490 values, Well 1: 0.6518
  OD490 values, Well 2: 0.6916
  OD490 values, Well 3: 0.6781
L929 cell line; 100μM, second assay
  OD490 values, Mean: 0.7959
  OD490 values, Well 1: 0.7856
  OD490 values, Well 2: 0.7958
  OD490 values, Well 3: 0.8062
L929 cell line; 100μM, third assay
  OD490 values, Mean: 0.7698
  OD490 values, Well 1: 0.8020
  OD490 values, Well 2: 0.7321
  OD490 values, Well 3: 0.7754
L929 cell line; Mus musculus, L929, MTS assay, 24 h exposure, ordinary fibroblast, not cancer cells
  IC50: 86 µM
T24 cell line; Homo sapiens, T-24, MTS assay, 24 h exposure
  IC50: 103 µM
T24 cell line; 0.5μM, first assay
  OD490 Mean: 1.7287
  OD490 Well 1: 1.7105
  OD490 Well 2: 1.7618
  OD490 Well 3: 1.7137
T24 cell line; 0.5μM, second assay
  OD490 Mean: 1.6993
  OD490 Well 1: 1.7012
  OD490 Well 2: 1.6854
  OD490 Well 3: 1.7112
T24 cell line; 0.5μM, third assay
  OD490 Mean: 1.6796
  OD490 Well 1: 1.7151
  OD490 Well 2: 1.6985
  OD490 Well 3: 1.6252
T24 cell line; 1μM, first assay
  OD490 Mean: 1.7475
  OD490 Well 1: 1.7891
  OD490 Well 2: 1.7321
  OD490 Well 3: 1.7213
T24 cell line; 1μM, second assay
  OD490 Mean: 1.6914
  OD490 Well 1: 1.6854
  OD490 Well 2: 1.6687
  OD490 Well 3: 1.7201
T24 cell line; 1μM, third assay
  OD490 Mean: 1.6844
  OD490 Well 1: 1.6654
  OD490 Well 2: 1.6854
  OD490 Well 3: 1.7023
T24 cell line; 10μM, first assay
  OD490 Mean: 1.7610
  OD490 Well 1: 1.7529
  OD490 Well 2: 1.7204
  OD490 Well 3: 1.8096
T24 cell line; 10μM, second assay
  OD490 Mean: 1.6914
  OD490 Well 1: 1.6952
  OD490 Well 2: 1.7032
  OD490 Well 3: 1.6758
T24 cell line; 10μM, third assay
  OD490 Mean: 1.6899
  OD490 Well 1: 1.6523
  OD490 Well 2: 1.6854
  OD490 Well 3: 1.7320
T24 cell line; 25μM, first assay
  OD490 Mean: 1.6722
  OD490 Well 1: 1.6737
  OD490 Well 2: 1.6555
  OD490 Well 3: 1.6875
T24 cell line; 25μM, second assay
  OD490 Mean: 1.5562
  OD490 Well 1: 1.5784
  OD490 Well 2: 1.5687
  OD490 Well 3: 1.5214
T24 cell line; 25μM, third assay
  OD490 Mean: 1.5261
  OD490 Well 1: 1.5255
  OD490 Well 2: 1.4895
  OD490 Well 3: 1.5632
T24 cell line; 50μM, first assay
  OD490 Mean: 1.4241
  OD490 Well 1: 1.3950
  OD490 Well 2: 1.4682
  OD490 Well 3: 1.4091
T24 cell line; 50μM, second assay
  OD490 Mean: 1.2984
  OD490 Well 1: 1.3242
  OD490 Well 2: 1.3021
  OD490 Well 3: 1.2688
T24 cell line; 50μM, third assay
  OD490 Mean: 1.2717
  OD490 Well 1: 1.2854
  OD490 Well 2: 1.2312
  OD490 Well 3: 1.2985
T24 cell line; 100μM, first assay
  OD490 Mean: 1.1300
  OD490 Well 1: 1.1347
  OD490 Well 2: 1.0869
  OD490 Well 3: 1.1684
T24 cell line; 100μM, second assay
  OD490 Mean: 1.0488
  OD490 Well 1: 1.1133
  OD490 Well 2: 1.0101
  OD490 Well 3: 1.0230
T24 cell line; 100μM, third assay
  OD490 Mean: 1.0526
  OD490 Well 1: 1.0120
  OD490 Well 2: 1.1123
  OD490 Well 3: 1.0334
